Patent US20090258098A1, “PENETRATING CARRIER, ANTIFUNGAL COMPOSITION USING THE SAME AND METHOD FOR TREATMENT OF DERMATOPHYTE INFECTIONS” (priority 2008, published 2009)

How the values were obtained:
[1] = system: dermatophytic fungal strains; assay: Disk assay of essential oil components; format: cell-based; settings: disk loaded with 500, 1000, 1500 or 3000 ppm
Procedure: Various embodiments of the penetrating carrier system of the present invention were tested for their antimicrobial/biostatic potential by a laboratory test method, which provides a qualitative and semi-qualitative procedure for the evaluation of antimicrobial activity by disk assay. All dermatophytic fungal strains (Table 1) were grown on modified Sabouraud agar (pH adjusted to 7). The cultures were grown for one week previous to the experiments at 30° C., while stock culture plates were maintained at 4° C. until needed. […] The sterile disk was then loaded with 500 ppm, 1000 ppm, 1500 ppm or 3000 ppm of the test compound. A control was provided by placing 2 ul of alcohol on plates that were inoculated for this purpose. The plates were incubated for seven (7) days at 30° C. The zone of inhibition was measured around each loaded disk in four directions. The average measurement was then determined and recorded in millimeters as the zone of inhibition.

[2] = system: four dermatophytes (E. floccosum, M. gypseum, T. mentagrophytes, and T. rubrum); assay: Poison media procedure; format: cell-based; settings: 100 ppm
Procedure: (§1) Each individual essential oil component was mixed with molten modified Sabouraud agar in 100 ppm, 500 ppm, or 1000 ppm (v/v). The poison media agar was then poured and allowed to cool for at least 48 hours. Separate cultures of four dermatophytes (i.e.: E. floccosum, M. gypseum, T. mentagrophytes, and T. rubrum) were grown on modified Sabouraud agar for four days until a confluent mat of mycelium developed. The four cultures were then cut into 8 mm plugs and placed upside down with the fungi culture on the surface of the poison media. This procedure was run in triplicate. In addition, several mixtures containing various combinations of the essential oil components were tested using the same procedure. The plates were incubated for one week at 30° C. Plates were then examined for growth. Plates with no visible growth after one week on the poison media were listed as fungistatic
(§2) Plugs showing no growth on the poison media were then transferred to modified SDA, allowed to incubate for an additional week at 30° C., and then reexamined for growth. All components were run in triplicate. Plates with no growth after the additional week were listed as fungicidal.

Trichopyton rubrum = assay: Minimum inhibitory concentration, poison media procedure; format: cell-based, Trichophyton rubrum
Procedure: as §1, §2

[3] = system: Trichophyton mentagrophytes; assay: as above; format: cell-based
Procedure: as §1, §2

Microsporum gypseum = assay: as above; format: cell-based
Procedure: as §1, §2

Epidermophyton floccosum = assay: as above; format: cell-based
Procedure: as §1, §2

[4] = 100 ppm (v/v) in modified Sabouraud agar, one week at 30° C.
[5] = 500 ppm (v/v) in modified Sabouraud agar, one week at 30° C.
[6] = 1000 ppm (v/v) in modified Sabouraud agar, one week at 30° C.

SMILES	Rank among essential oil components in the disk assay [1]	Inhibition of growth [2]	Growth on poison media (fungistatic / fungicidal / growth) (Trichopyton rubrum; [4])	Growth on poison media (fungistatic / fungicidal / growth) (Trichopyton rubrum; [5])	Growth on poison media (fungistatic / fungicidal / growth) (Trichopyton rubrum; [6])	Growth on poison media (fungistatic / fungicidal / growth) [3, 4]	Growth on poison media (fungistatic / fungicidal / growth) [3, 5]	Growth on poison media (fungistatic / fungicidal / growth) [3, 6]	Growth on poison media (fungistatic / fungicidal / growth) (Microsporum gypseum; [4])	Growth on poison media (fungistatic / fungicidal / growth) (Microsporum gypseum; [5])	Growth on poison media (fungistatic / fungicidal / growth) (Microsporum gypseum; [6])	Growth on poison media (fungistatic / fungicidal / growth) (Epidermophyton floccosum; [4])	Growth on poison media (fungistatic / fungicidal / growth) (Epidermophyton floccosum; [5])	Growth on poison media (fungistatic / fungicidal / growth) (Epidermophyton floccosum; [6])	also measured
Cc1ccc(C(C)C)cc1O [Carvacrol]	most inhibitory	inhibit the growth of several organisms	fungistatic	fungicidal	fungicidal	[empty]	fungicidal	fungicidal	fungistatic	fungicidal	fungicidal	[empty]	fungicidal	fungicidal	
O=CC=Cc1ccccc1 [Cinnamaldehyde]	most inhibitory		[empty]	fungicidal	fungicidal	[empty]	[empty]	fungicidal	[empty]	fungicidal	fungicidal	[empty]	fungicidal	fungicidal	
CC(C)=CCCC(C)=CC=O [Citral]	most inhibitory		[empty]	[empty]	fungicidal	[empty]	[empty]	fungistatic	[empty]	[empty]	fungicidal	[empty]	[empty]	[empty]	
C=CCc1ccc(O)c(OC)c1 [Eugenol]	most inhibitory		[empty]	fungistatic	fungicidal	[empty]	fungistatic	fungistatic	[empty]	fungicidal	fungicidal	[empty]	fungicidal	fungicidal	
C=CCc1ccc(OC)c(OC)c1 [Methyl Eugenol]															Growth on poison media (fungistatic / fungicidal / growth) (Trichopyton rubrum; 168 h, 100 ppm): [empty]; Growth on poison media (fungistatic / fungicidal / growth) (Trichopyton rubrum; 168 h, 500 ppm): fungistatic; Growth on poison media (fungistatic / fungicidal / growth) (Trichopyton rubrum; 168 h, 1000 ppm): fungistatic; Growth on poison media (fungistatic / fungicidal / growth) ([3]; 168 h, 100 ppm): [empty]; Growth on poison media (fungistatic / fungicidal / growth) ([3]; 168 h, 500 ppm): fungistatic; Growth on poison media (fungistatic / fungicidal / growth) ([3]; 168 h, 1000 ppm): fungistatic; Growth on poison media (fungistatic / fungicidal / growth) (Microsporum gypseum; 168 h, 100 ppm): [empty]; Growth on poison media (fungistatic / fungicidal / growth) (Microsporum gypseum; 168 h, 500 ppm): fungistatic; Growth on poison media (fungistatic / fungicidal / growth) (Microsporum gypseum; 168 h, 1000 ppm): fungistatic; Growth on poison media (fungistatic / fungicidal / growth) (Epidermophyton floccosum; 168 h, 100 ppm): [empty]; Growth on poison media (fungistatic / fungicidal / growth) (Epidermophyton floccosum; 168 h, 500 ppm): fungistatic; Growth on poison media (fungistatic / fungicidal / growth) (Epidermophyton floccosum; 168 h, 1000 ppm): fungistatic
Cc1ccc(C(C)C)c(O)c1 [Thymol]	most inhibitory	inhibit the growth of several organisms	fungicidal	fungicidal	fungicidal	fungistatic	fungicidal	fungicidal	fungistatic	fungicidal	fungicidal	fungistatic	fungicidal	fungicidal	
